Laboratory results published in US8658591B2, “Multi-LEU peptides and analogues thereof as selective PACE4 inhibitors and effective antiproliferative agents” (priority 2008, dated 2014).

What was measured:
Assay type in all cases: biochemical
PC5/6 = PC5/6 (Homo sapiens, UniProt Q92824); test: Enzyme inhibition assay, fluorogenic substrate, PC5/6
Experimental: (§1) Enzyme inhibition assays for furin (FIG. 5D) were performed in 100 mM Hepes pH 7.5, 1 mM CaCl2, 1 mM β-mercaptoethanol, 0.5 μg/μL BSA. Assays for PC2 (FIG. 5E) were performed in 20 mM Bis-Tris pH 5,7, 1 mM CaCl2, 0.1% Brij-30. Assays for PC1/3, PC4, PACE4, PC5/6 and PC7 (FIGS. 5F, G, A, B and C respectively) were performed in 20 mM Bis-Tis pH 6.5, 1 mM CaCl2. All assays were performed with the substrate pyroGlu-Arg-[…]-Lys-Arg-methyl-coumaryl-7-amide (SEQ ID NO: 33) (PyrRTKR-MCA (SEQ ID NO: 34)) (Bachem, CA) at 100 μM for furin, PC1/3, PC4, PACE4 and PC5/6, 200 μM for PC2 and 250 μM for PC7. Assays were carried out at 37° C. for 30-60 min and real-time fluorescence was measured with an excitation wavelength of 370 nm and an emission wavelength of 460 nm using a Gemini XS™ 96-well spectrofluorometer and SoftMaxPro4™ software (Molecular Devices, CA). Inhibitory peptides were added to the enzymes at decreasing concentrations from 100 μM to 50 nM and incubated 5 minutes prior to the addition of substrate.

PC7 = molecular target: T1, PC7 (Homo sapiens, UniProt Q16549); test: Enzyme inhibition assay, fluorogenic substrate, PC7
T1 sequence (Q16549 142-785): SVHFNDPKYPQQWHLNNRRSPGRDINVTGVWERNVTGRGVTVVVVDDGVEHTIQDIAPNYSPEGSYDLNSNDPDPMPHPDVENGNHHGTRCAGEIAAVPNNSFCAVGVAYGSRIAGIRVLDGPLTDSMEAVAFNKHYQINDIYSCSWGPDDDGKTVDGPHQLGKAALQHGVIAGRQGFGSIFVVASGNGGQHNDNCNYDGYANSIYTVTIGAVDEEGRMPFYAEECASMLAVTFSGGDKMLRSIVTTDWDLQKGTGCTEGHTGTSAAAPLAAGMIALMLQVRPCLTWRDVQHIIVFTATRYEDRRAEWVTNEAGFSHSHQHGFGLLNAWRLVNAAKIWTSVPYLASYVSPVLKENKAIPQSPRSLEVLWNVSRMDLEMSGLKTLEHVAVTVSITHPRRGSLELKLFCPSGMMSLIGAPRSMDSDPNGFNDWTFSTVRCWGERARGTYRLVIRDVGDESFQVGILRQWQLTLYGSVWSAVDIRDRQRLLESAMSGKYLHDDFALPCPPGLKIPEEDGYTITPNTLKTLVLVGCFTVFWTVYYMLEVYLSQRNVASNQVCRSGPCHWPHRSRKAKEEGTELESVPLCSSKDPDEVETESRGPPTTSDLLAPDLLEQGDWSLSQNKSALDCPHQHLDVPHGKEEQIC
Experimental: as §1

furin = furin (Homo sapiens, UniProt P09958); test: Enzyme inhibition assay, fluorogenic substrate, furin
Chain of furin (P09958 108-794, species assumed): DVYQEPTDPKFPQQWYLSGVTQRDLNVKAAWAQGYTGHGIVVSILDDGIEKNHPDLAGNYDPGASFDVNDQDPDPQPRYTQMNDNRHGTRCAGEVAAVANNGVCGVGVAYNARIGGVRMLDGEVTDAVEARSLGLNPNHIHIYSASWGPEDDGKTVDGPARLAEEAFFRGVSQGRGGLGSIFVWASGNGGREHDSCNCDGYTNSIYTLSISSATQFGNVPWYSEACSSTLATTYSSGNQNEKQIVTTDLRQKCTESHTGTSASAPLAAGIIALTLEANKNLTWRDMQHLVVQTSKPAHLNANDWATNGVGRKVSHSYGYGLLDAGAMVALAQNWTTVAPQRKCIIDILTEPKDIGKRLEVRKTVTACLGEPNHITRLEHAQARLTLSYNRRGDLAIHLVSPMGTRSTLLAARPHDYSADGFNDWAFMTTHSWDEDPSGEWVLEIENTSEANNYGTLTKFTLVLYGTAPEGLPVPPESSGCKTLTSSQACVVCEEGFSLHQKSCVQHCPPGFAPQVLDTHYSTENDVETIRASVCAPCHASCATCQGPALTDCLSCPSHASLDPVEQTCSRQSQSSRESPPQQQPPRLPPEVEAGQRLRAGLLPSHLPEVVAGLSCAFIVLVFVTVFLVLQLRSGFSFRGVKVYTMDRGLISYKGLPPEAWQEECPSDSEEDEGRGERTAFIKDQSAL
Experimental: as §1

PC2 = molecular target: T2, PC2 (Homo sapiens, UniProt P16519); test: Enzyme inhibition assay, fluorogenic substrate, PC2
T2 sequence (P16519 110-638): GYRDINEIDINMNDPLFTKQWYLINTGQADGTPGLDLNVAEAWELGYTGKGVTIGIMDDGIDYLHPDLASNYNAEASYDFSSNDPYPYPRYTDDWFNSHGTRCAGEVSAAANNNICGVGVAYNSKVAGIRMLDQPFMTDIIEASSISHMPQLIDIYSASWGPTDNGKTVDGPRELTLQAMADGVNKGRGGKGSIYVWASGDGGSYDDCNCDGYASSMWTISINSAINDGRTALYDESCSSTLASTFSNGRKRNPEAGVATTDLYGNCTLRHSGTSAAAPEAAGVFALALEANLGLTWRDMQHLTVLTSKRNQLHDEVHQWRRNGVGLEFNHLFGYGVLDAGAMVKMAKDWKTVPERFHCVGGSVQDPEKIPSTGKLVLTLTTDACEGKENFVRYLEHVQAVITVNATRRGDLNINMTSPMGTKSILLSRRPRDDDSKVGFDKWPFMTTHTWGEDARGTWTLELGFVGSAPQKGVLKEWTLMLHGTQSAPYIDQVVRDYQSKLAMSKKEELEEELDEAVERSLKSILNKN
Experimental: as §1

Chain of PC5/6 (Q92824 115-1860): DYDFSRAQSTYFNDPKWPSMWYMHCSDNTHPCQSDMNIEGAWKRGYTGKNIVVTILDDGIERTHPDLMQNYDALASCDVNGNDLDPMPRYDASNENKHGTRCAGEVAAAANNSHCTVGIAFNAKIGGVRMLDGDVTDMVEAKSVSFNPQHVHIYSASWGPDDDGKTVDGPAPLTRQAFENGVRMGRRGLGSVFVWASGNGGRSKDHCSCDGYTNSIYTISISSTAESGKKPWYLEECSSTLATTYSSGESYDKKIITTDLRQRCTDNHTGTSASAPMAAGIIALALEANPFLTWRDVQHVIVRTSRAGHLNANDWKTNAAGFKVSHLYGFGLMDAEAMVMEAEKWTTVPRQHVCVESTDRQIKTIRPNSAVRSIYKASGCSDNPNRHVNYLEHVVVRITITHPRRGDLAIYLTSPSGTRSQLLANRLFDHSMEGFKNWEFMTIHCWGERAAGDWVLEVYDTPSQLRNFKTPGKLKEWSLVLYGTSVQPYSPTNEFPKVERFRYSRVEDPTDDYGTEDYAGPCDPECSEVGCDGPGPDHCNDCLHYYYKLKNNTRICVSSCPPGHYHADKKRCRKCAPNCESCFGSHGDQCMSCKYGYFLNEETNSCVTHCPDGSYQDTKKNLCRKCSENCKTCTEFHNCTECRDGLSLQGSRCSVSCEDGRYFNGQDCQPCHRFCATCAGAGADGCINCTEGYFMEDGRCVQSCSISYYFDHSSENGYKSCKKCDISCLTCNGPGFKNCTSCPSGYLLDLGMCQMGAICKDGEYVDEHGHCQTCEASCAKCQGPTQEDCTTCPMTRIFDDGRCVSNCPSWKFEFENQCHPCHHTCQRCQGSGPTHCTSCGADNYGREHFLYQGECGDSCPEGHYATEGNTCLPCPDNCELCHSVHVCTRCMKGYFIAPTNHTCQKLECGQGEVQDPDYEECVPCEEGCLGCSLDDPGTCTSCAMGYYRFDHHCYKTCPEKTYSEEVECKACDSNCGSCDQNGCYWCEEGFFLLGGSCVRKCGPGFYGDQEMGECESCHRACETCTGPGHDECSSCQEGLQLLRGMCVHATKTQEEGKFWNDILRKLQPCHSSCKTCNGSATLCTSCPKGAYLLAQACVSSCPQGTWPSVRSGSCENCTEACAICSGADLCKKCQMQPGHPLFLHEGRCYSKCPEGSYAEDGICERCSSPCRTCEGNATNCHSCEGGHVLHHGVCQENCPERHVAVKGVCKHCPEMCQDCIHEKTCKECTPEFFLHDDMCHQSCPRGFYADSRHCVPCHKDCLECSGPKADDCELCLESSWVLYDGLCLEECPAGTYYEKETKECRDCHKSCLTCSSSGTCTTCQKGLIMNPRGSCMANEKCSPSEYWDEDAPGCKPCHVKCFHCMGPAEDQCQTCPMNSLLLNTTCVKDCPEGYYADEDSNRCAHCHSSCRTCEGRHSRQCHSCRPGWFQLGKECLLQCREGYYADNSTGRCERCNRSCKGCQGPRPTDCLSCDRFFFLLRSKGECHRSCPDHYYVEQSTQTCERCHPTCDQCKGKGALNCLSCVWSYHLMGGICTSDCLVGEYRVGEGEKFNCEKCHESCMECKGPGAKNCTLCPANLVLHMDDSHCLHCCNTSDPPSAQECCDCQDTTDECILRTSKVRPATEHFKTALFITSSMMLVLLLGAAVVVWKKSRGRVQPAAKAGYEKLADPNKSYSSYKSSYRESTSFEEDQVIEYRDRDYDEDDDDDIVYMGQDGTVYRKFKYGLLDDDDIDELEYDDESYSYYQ

- inhibition potency on PC5/6, in words (PC5/6): poor micromolar inhibitor
- inhibition potency on PC7, in words (PC7): poor micromolar inhibitor
- inhibition potency on furin, in words (furin): poor micromolar inhibitor
- inhibition potency on PC2, in words (PC2): poor micromolar inhibitor
Substance: RVKR [RVKR—NH2, RVKR-NH2]
